Key:
[1] = system: glycine binding site of the NMDA receptor; conditions: cited from earlier work
glycine/NMDA receptor = glycine/NMDA receptor affinity (1 μM glycine-stimulated [3H]-MK801 binding, rat brain membranes; also estimated by electrophysiology)
Description: The assay is conducted using rat brain membrane homogenates that are enriched in NMDA receptors. The membranes are prepared as follows. Frozen rat brains (obtained from Pel-Freez, Rogers, Ark.) are homogenized in 15 volumes (w/v) of ice cold 0.32M sucrose. The homogenate is spun at 1,000×g for ten minutes. The supernatant is collected and spun for 20 minutes at 44,000×g. The pellet is suspended in 15 volumes of water (relative to original brain weight). The homogenate is again spun at 44,000×g for twenty minutes. The pellet is resuspended in 5 volumes of water and the suspension is freeze-thawed 2 times. After the final thaw cycle, the suspension is brought to 15 volumes with water and spun at 44,000×g for twenty minutes. The pellet is resuspended in 5 volumes of ice-cold 10 mM HEPES, and is titrated to pH 7.4 with KOH containing 0.04% Triton X-100. […] The volume is then brought to 15 with ice-cold 10 mM HEPES, pH 7.4, and spun/washed three times with spins of 44,000×g between washes. The final pellet is suspended in three volumes of 50 mM HEPES, pH 7.4 and the protein concentration is determined with a standard dye-binding protein assay (Bio-Rad, Richmond, Calif.). The suspension is stored at -80° C. until used. Only HPLC grade water is used for all buffers and suspensions/washings. The extensive washings are necessary to remove as much endogenous glycine from the membrane preparation as possible.
Nonspecific binding is defined as the […] presence of PCP (final concentration: 100 μM). […] A 500 nM concentration (final) of 5,7-dichlorokynurenic (DCK) acid is added to all assay tubes. This concentration of the glycine antagonist DCK "buffers" most of the residual endogenous glycine that is not removed by the extensive washing steps that are carried out during the membrane preparation procedure.
Filtration is accomplished using a Brandel 48 well cell harvester. Filtered membranes are washed three times with 3 mL each of ice cold buffer. Filters are transferred to scintillation vials and 5 mL of scintillation cocktail is added. The vials are shaken overnight and the radioactivity is counted by liquid scintillation spectroscopy. The assays are done in triplicate and all experiments are conducted at least three times.
(§1) The binding affinities at NMDA receptor glycine sites also were estimated by electrophysiological assay either using cloned rat NMDA receptors expressed in Xenopus oocytes, or non-NMDA receptors expressed in oocytes by whole rat brain poly(A)^+ RNA. […] For NMDA receptors Kb s were approximated by averaging values at three subtype combinations (NR1A/NR2A, NR1A/NR2B, and NR1A/NR2C).

MES-induced seizures = experiment: anticonvulsant activity, maximum electroshock-induced seizure (MES) experiment in mice; format: in vivo, mouse; conditions: for ED50: Mus musculus, iv, read-out: ED50 as an anticonvulsant in MES experiment
Description: The anticonvulsant activity of the glycine antagonists may be assessed in the maximum electroshock-induced seizure (MES) assay in mice. […] The seizure stimulus parameters were: 50 mA, 60 Hz, rectangular pulse, width 0.8 msec, duration 200 msec. Tonic hind limb extension observed after application of the electrical stimulus was recorded as occurrence of seizure. The drug was applied i.v. as an aqueous basic solution.

[2] = system: MES-induced tonic clonic seizures; experiment: Example 35: time course and potency in maximum electroshock (MES) model, i.v., mice; format: in vivo, Swiss-Webster mouse; conditions: for protection of mice at the lowest dose: 2 minutes; for animals showing no tonic seizures: 2 minutes after i.v. 5 mg/kg (6-chloro-8-(N-oxy)aza) or 10 mg/kg (6-chloro-7-methyl-8-(N-oxy)aza); for mice protected against seizures: 15 minutes after i.v. 5 mg/kg (6-chloro-8-(N-oxy)aza) or 10 mg/kg (6-chloro-7-methyl-8-(N-oxy)aza); for ED50: Mus musculus, iv, 2 min, Litchfield and Wilcoxon, read-out: ED50, inhibition of MES-induced seizures; for ED50 / 95% confidence limits of ED50 / inhibition of MES-induced seizures / time of maximal anti-MES effect: i.v.; for ED50 / 95% confidence limits of ED50: 2 minutes post injection; for efficacy in inhibiting MES-induced tonic seizures over time: i.v. time course, 2-60 minutes; for inhibition of MES-induced seizures: dose dependence; for time of maximal anti-MES effect: post-injection
Text: The objectives of the studies were to determine the time of maximal effect and potency for compounds 6-chloro-8-(N-oxy)aza-1,4-dihydroquinoxaline-2,3-dione and 6-chloro-7-methyl-8-(N-oxy)aza-1,4-dihydroquinoxaline-2,3-dione in the inhibition of maximal electroshock (MES)-induced tonic clonic seizures following intravenous (i.v.) administration in mice.
The time-course study involved a one-factor, between groups design in which animals were divided into groups based on the time between administration of 6-chloro-8-(N-oxy)aza-1,4-dihydroquinoxaline-2,3-dione and 6-chloro-7-methyl-8-(N-oxy)aza-1,4-dihydroquinoxaline-2,3-dione and the MES stimulus. Similarly, the potency study involved a one-factor, between group design in which animals were divided into groups based on drug dose. Each group in both studies consisted of 8 animals.
6-Chloro-8-(N-oxy)aza-1,4-dihydroquinoxaline-2,3-dione and 6-chloro-7-methyl-8-(N-oxy)aza-1,4-dihydroquinoxaline-2,3-dione were dissolved in 0.05M Tris (J. T. Baker) at concentrations of 5 mg/mL and 2.5 mg/mL, respectively.
Experiments were conducted with Swiss-Webster male mice (Simonsen Lab. Inc.). Mice were 5-6 weeks old and weighed 18-24 g upon arrival in the laboratory. In the time course study, mice were treated with an i.v. injection of 6-chloro-8-(N-oxy)aza-1,4-dihydroquinoxaline-2,3-dione (5 mg/kg) or 6-chloro-7-methyl-8-(N-oxy)aza-1,4-dihydroquinoxaline-2,3-dione(10 mg/kg) or vehicle. Mice were tested at 2, 15, 30, or 60 minutes after vehicle or drug administration. […] The electroshock device was a Ugo Basile ECT Unit 7801 (Varese, Italy; Model 24093). The electroshock characteristics were as follows: 50 mA, 60 pulses per second, […], and a 0.2 second train length. […] Tonic seizures were defined as the tonic extension of the forelimbs and hindlimbs. […] Therefore, the result from each animal was an all-or-none phenomenon with either a seizure present or absent following the shock administration. The time point at which 6-chloro-8-(N-oxy)aza-1,4-dihydroquinoxaline-2,3-dione and 6-chloro-7-methyl-8-(N-oxy)aza-1,4-dihydroquinoxaline-2,3-dione produced a maximal response was determinated by analyzing the graphical results. The dose at which 50% of the animals were protected against MES-induced seizures (ED50) was calculated by Litchfield and Wilcoxon Method (Pharm/PCS R. J. Tallarida & R. B. Murray Version 4.2).

[3] = system: focal cerebral ischemia (MCA occlusion); experiment: rat model of permanent focal cerebral ischemia (MCA occlusion), infarct volume; format: in vivo, Sprague-Dawley rat
Description: Male Sprague-Dawley rats ([…]) were intubated and maintained under anesthesia with ±2% of halothane. Body temperature was maintained at 37.5° C. during surgery by means of a warming pad and a rectal probe connected to the control unit. The common carotid arteries (CCA) were isolated and a loose silk ligature was placed around each CCA. A vertical skin incision was made between the left orbit and the auditory canal, posterior part of zygoma removed, and a small opening (2.0/2.5 mm) drilled dorsorostrally to the foramen ovale under constant saline irrigation. The dura was opened with a microsurgical hook and the brain gently retracted with a fine spatula to expose the bifurcation of the internal carotid artery and the middle cerebral artery. The ipsilateral CCA was ligated and the MCA coagulated from its origin to the olfactory tract. Two hours after MCA occlusion, the clip from the contralateral CCA was removed. […]
Brains were sliced into 2 mm blocks and stained with tetrazolium red (2,3,5-triphenyl tetrazolium chloride). The areas of brain damage were assessed using an image analyzer (Image-1, Universal Imaging Corporation, PA) to determine the volume of cortical and subcortical infarction by integration of areas and the distance between each level.

[4] = blood-brain-barrier crossing inferred from Ki and MES ED50; format: in vivo, mouse
non-NMDA receptor = non-NMDA receptor affinity; format: binding, rat
Description: (§2) Filtered membranes are washed three times with 3 mL each of ice cold buffer.
as §2, §1

[5] = system: PCP-like behavioral effects; conditions: in vivo; cited from earlier work
katalepsy = conditions: pigeons; cited from earlier work
brain ischemia / neurons = conditions: cited from earlier work
[6] = 20 mg/kg bolus + 14 mg/kg/h for 22 h, 30 min after MCA occlusion

## O=C(O)c1cc(O)c2c(Cl)cc(Cl)cc2n1 [5,7-dichlorokynurenic acid]
[1]
  receptor binding affinity in vitro: relatively high receptor binding affinity in vitro

## O=c1[nH]c2cc(Cl)c(Cl)[n+]([O-])c2[nH]c1=O [6,7-Dichloro-8(N-oxy)aza-1,4-dihydroquinoxaline-2,3-dione]
glycine/NMDA receptor
  Ki: 100 nM
MES-induced seizures
  ED50: 7.5 mg/kg

## O=c1[nH]c2cc(Cl)c(Cl)c([N+](=O)[O-])c2[nH]c1=O [6,7-dichloro-5-nitro-1,4-dihydroquinoxaline-2,3-dione, reference compound]
glycine/NMDA receptor
  Ki: 3.3 nM
MES-induced seizures
  ED50 as an anticonvulsant in MES experiment: 4 to 5 mg/kg

## O=c1[nH]c2cc(Br)c[n+]([O-])c2[nH]c1=O [6-Bromo-8-(N-oxy)aza-1,4-dihydroquinoxaline-2,3-dione]
glycine/NMDA receptor
  Ki: 1000 nM
MES-induced seizures
  ED50: 1 to 1.5 mg/kg

## Cc1c(Cl)cc2[nH]c(=O)c(=O)[nH]c2[n+]1[O-] [6-Chloro-7-methyl-8-(N-oxy)aza-1,4-dihydroquinoxaline-2,3-dione]
[2]; 4 mg/kg i.v.
  protection of mice at the lowest dose: 12.5%
[2]
  animals showing no tonic seizures: 8/8
  mice protected against seizures: 3/8
  ED50: 6.71 mg/kg
  efficacy in inhibiting MES-induced tonic seizures over time: decreased over one hour
  95% confidence limits of ED50: 5.48 to 8.22 mg/kg
  inhibition of MES-induced seizures: dose dependently, inhibited MES-induced seizures
  time of maximal anti-MES effect: 2 min
glycine/NMDA receptor
  Ki: 50 nM
MES-induced seizures
  ED50: 7 mg/kg

## [O-][n+]1cc(Cl)cc2nc(O)c(O)nc21 [6-Chloro-8-(N-oxy)aza-1,4-dihydroquinoxaline-2,3-dione]
[2]; 0.5 mg/kg i.v.
  protection of mice at the lowest dose: 25%
[2]
  animals showing no tonic seizures: 8/8
  mice protected against seizures: 4/8
  ED50: 1.26 mg/kg
  efficacy in inhibiting MES-induced tonic seizures over time: decreased over one hour
  95% confidence limits of ED50: 0.94 to 1.67 mg/kg
  inhibition of MES-induced seizures: dose dependently, inhibited MES-induced seizures
  time of maximal anti-MES effect: 2 min
glycine/NMDA receptor
  Ki: 600 nM
[3]; 10 mg/kg bolus + 7 mg/kg/h for 22 h, immediately after MCA occlusion
  protection at the lower dose: no protection
[3]; [6]
  reduction in cortical infarct volume: 70%
  reduction in subcortex infarct volume: 35%
[3]; 20 mg/kg bolus + 14 mg/kg/h for 22 h i.v., immediately after MCA occlusion
  reduction in cortical infarct volume: 67%
[3]; rat model of focal ischemia
  neuroprotection: significant neuroprotection
[4]
  blood-brain-barrier crossing relative to 6,7-dichloro-5-nitro-1,4-dihydroquinoxaline-2,3-dione: about 1000 times
MES-induced seizures
  ED50: 1 to 1.5 mg/kg

## Cc1cc2[nH]c(=O)c(=O)[nH]c2[n+]([O-])c1 [6-Methyl-8-(N-oxy)aza-1,4-dihydroquinoxaline-2,3-dione]
glycine/NMDA receptor
  Ki: 2400 nM
MES-induced seizures
  ED50: 1 to 1.5 mg/kg

## O=C(O)c1cc(O)c2ccc(Cl)cc2n1 [7-Cl-kynurenic acid]
[1]
  receptor binding affinity in vitro: relatively high receptor binding affinity in vitro

## O=c1[nH]c2cc(Cl)cnc2[nH]c1=O [Compound 5, 6-Chloro-8-aza-1,4-dihydroquinoxaline-2,3-dione]
glycine/NMDA receptor
  activity relative to corresponding QX: about as active as the corresponding 6-chloro-QX

## O=c1[nH]c2cc(Cl)c(Cl)nc2[nH]c1=O [Compound 6, 6,7-Dichloro-8-aza-1,4-dihydroquinoxaline-2,3-dione]
glycine/NMDA receptor
  Ki: ~200 nM

## Cc1nc2[nH]c(=O)c(=O)[nH]c2cc1Br [Compound 8, 6-Bromo-7-methyl-8-aza-1,4-dihydroquinoxaline-2,3-dione]
glycine/NMDA receptor
  Ki: ~200 nM

## O=c1[nH]c2ccncc2[nH]c1=O [Compound 11, 6-Aza-1,4-dihydroquinoxaline-2,3-dione]
glycine/NMDA receptor
  activity relative to corresponding QX: about as active as QX

## O=c1[nH]c2cncnc2[nH]c1=O [Compound 13, 6,8-Diaza-1,4-dihydroquinoxaline-2,3-dione]
glycine/NMDA receptor
  activity relative to corresponding QX: about as active as QX

## O=c1[nH]c2cc([N+](=O)[O-])c[n+]([O-])c2[nH]c1=O [Compound 64, 7-Nitro-5-(N-oxy)aza-1,4-dihydroquinoxaline-2,3-dione]
glycine/NMDA receptor
  Ki: 130 nM
non-NMDA receptor
  Ki: 340 nM
MES-induced seizures
  ED50: 3 to 4 mg/kg

## NC1CCN(O)C1=O (stereo not shown) [HA-966]
[1]
  agonist character: partial agonist
  receptor binding affinity in vitro: micromolar affinity for the glycine binding site

## c1ccc(C2(N3CCCCC3)CCCCC2)cc1 [PCP, phencyclidine]
[5]
  PCP-like behavioral side effects: behavioral excitation (hyperlocomotion) in rodents
katalepsy
  katalepsy: characteristic katalepsy in pigeons
Brain ischemia / neurons
  neuroprotective efficacy: neuroprotective efficacy both in vitro and in vivo

## COc1ccc2c(c1)[C@]13CCCC[C@@H]1[C@H](C2)N(C)CC3 [dextromethorphan]
Brain ischemia / neurons
  neuroprotective efficacy: neuroprotective efficacy both in vitro and in vivo

## O=C(O)c1cc2ccccc2[nH]1 [indole-2-carboxylic acid]
[1]
  receptor binding affinity in vitro: relatively high receptor binding affinity in vitro

## CNC1(c2ccccc2Cl)CCCCC1=O (stereo not shown) [ketamine]
Brain ischemia / neurons
  neuroprotective efficacy: neuroprotective efficacy both in vitro and in vivo

— US5863916A, “8-aza, 6-aza and 6,8-diaza-1,4-dihydroquinoxaline-2,3-diones and the use thereof as antagonists for the glycine/NMDA receptor” (priority 1997, dated 1999)
